From ChEMBL document CHEMBL1149348, “Tubulin polymerization inhibitors with a fluorinated phthalimide skeleton derived from thalidomide” (Bioorg Med Chem Lett, 2006)
The source made the active and inactive calls. The rule behind the calls is not given here.

Tests used:
[1] = molecular target: Tubulin (Sus scrofa, UniProt P02554+P02550); experiment: Inhibition of tubulin polymerization in porcine brain
[2] = molecular target: T1, Tubulin (Sus scrofa) (UniProt P02554+P02550); experiment: Inhibition of tubulin polymerization in porcine brain at 20 uM
T1 sequence (P02550 whole entry, looked up): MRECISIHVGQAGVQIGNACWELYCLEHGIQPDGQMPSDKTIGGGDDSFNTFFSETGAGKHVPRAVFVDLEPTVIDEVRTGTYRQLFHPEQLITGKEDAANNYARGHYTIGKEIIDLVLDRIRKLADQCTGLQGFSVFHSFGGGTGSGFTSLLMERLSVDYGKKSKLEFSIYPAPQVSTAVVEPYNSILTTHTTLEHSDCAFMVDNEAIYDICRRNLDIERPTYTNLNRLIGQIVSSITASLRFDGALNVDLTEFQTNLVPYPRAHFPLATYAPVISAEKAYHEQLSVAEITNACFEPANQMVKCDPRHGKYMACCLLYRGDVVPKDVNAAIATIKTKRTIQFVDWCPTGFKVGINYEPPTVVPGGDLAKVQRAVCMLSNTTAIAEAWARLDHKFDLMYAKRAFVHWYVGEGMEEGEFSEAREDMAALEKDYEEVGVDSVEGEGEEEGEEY
T1 sequence (P02554 whole entry, looked up): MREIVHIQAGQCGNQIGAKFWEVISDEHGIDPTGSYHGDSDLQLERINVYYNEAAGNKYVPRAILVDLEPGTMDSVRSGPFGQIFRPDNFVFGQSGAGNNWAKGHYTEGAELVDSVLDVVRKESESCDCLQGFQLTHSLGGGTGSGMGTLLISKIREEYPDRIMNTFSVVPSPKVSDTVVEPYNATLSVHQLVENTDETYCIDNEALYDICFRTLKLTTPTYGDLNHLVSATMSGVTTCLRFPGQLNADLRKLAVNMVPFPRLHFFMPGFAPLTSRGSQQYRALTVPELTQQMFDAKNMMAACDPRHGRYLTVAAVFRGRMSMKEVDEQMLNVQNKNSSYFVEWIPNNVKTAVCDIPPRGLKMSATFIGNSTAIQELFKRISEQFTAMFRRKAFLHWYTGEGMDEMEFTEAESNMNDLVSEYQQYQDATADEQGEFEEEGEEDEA

[3] = molecular target: T1, Tubulin (Sus scrofa); experiment: Inhibition of tubulin depolymerization in porcine brain at 10 uM

Row | Structure (SMILES) | IC50 [1] [µM] | inhibition [2] [%] | Activity [3]
1 | CC(C)c1cccc(C(C)C)c1N1C(=O)c2ccc(O)cc2C1=O | 6.9 | – | –
2 | CC(C)c1cccc(C(C)C)c1N1C(=O)c2ccccc2C1=O | – | 3 | –
3 | Cc1cccc(C)c1N1C(=O)c2c(Cl)c(Cl)c(Cl)c(Cl)c2C1=O | – | 0 | –
4 | CCCc1cccc(CCC)c1N1C(=O)c2c(Cl)c(Cl)c(Cl)c(Cl)c2C1=O | – | 0 | –
5 | CC(C)c1cccc(C(C)C)c1N1C(=O)c2cccc(F)c2C1=O | 17 | 73 | –
6 | CC(C)c1cccc(C(C)C)c1N1C(=O)c2c(F)ccc(F)c2C1=O | 7.8 | 78 | inactive
7 | CC(C)c1cccc(C(C)C)c1N1C(=O)c2cc(F)c(F)cc2C1=O | – | 8 | –
8 | CC(C)c1cccc(C(C)C)c1N1C(=O)c2ccc(F)cc2C1=O | – | 9 | –
9 | CO[C@@H](/C(C)=C/C=C/C(C)=C/c1coc(C)n1)[C@@H](C)[C@@H]1C[C@H](O)[C@@]2(C)O[C@@H]2/C=C/[C@@H](C)[C@H]2C[C@H](CC(=O)O2)C[C@@H]2O[C@H]2C(=O)O1 | – | 81 | –

Further lines, results first:

Row | IC50 [1] [µM] | inhibition [2] [%] | Activity [3] | Structure (SMILES)
10 | – | 11 | – | CC(C)c1cc(Br)cc(C(C)C)c1N1C(=O)c2c(F)c(F)c(F)c(F)c2C1=O
11 | – | 10 | – | Cc1cccc(C)c1N1C(=O)c2c(F)c(F)c(F)c(F)c2C1=O
12 | – | 10 | – | CC(C)c1ccccc1N1C(=O)c2c(F)c(F)c(F)c(F)c2C1=O
13 | – | 10 | – | CC(C)c1ccc([N+](=O)[O-])c(C(C)C)c1N1C(=O)c2c(F)c(F)c(F)c(F)c2C1=O
14 | – | 7 | – | O=C1c2c(F)c(F)c(F)c(F)c2C(=O)N1c1ccccc1
15 | – | 18 | – | CCc1cccc(CC)c1N1C(=O)c2c(F)c(F)c(F)c(F)c2C1=O
16 | – | 6 | – | O=C1c2c(Cl)c(Cl)c(Cl)c(Cl)c2C(=O)N1c1ccccc1
17 | 16 | 71 | – | CC(C)c1cccc(C(C)C)c1N1C(=O)c2c(F)c(F)c(F)c(F)c2C1=O
